Source: patent US10004233B2, “Relating to treatment of water” (BWA WATER ADDITIVES UK LIMITED, priority 2015, dated 2018)

Assays:
Desulfovibrio vulgaris = assay: Log10 reduction of viable anaerobic bacteria in high-TDS phosphate buffer suspension (API RP 38 media vials); assay type: cell-based; details: TDS 30,000 mg l^−1, 5 = complete kill
Experimental: (§1) Aqueous systems inoculated with anaerobe and facultative anaerobe culture and having a total dissolved solids (TDS) concentration of 30,000 mg l^−1 were prepared and treated with treatment agents comprising: (a) a phosphonium compound and (b) an oxazolidine compound. The phosphonium compound (a) used was tri n-butyl n-tetradecyl phosphonium chloride (TTPC). The oxazolidine compound (b) was 4,4-dimethyloxazolidine (DMO).
(§2) A suspension of Desulfovibrio vulgaris plus Enterobacter aerogenes bacteria containing from 1×10^5 to 1×10^6 cells/mL was prepared in sterile pH 8 phosphate buffer containing sodium chloride to give the desired total dissolved solids (TDS) concentration. Aliquots of this suspension were dosed with the indicated concentrations of the compounds (a) and (b) with the concentrations being measured as ppm active. The mixtures were allowed to stand at room temperature. At the designated contact times, each mixture was sampled to determine the total number of viable cells of both Desulfovibrio vulgaris and Enterobacter aerogenes by serial 10-fold dilution into API RP 38 media vials and anaerobic acid producing media vials, respectively. The vials were incubated at 37° C. for 72 hours. Results were recorded as log10 reduction in the viable count versus the control.
(§3) The efficacy of the treatment agents was evaluated by measuring the Log10 Reduction of the anaerobic bacterium Desulfovibrio vulgaris and the facultative anaerobic bacterium Enterobacter aerogenes after contact times of 1 hour, 4 hours and 24 hours as detailed in Table 1. For TTPC the stated ppm value relates to the amount of TTPC added (active). For the 4,4-dimethyloxazolidine the stated ppm relates to the amount of 4,4-dimethyloxazolidine added (active).

Enterobacter aerogenes = assay: Log10 reduction of viable facultative anaerobic bacteria in high-TDS phosphate buffer suspension (anaerobic acid producing media vials); assay type: cell-based; details: TDS 30,000 mg l^−1, 8 = complete kill
Experimental: as §1, §2, §3

[1] = TTPC 3.125 ppm active, contact time 1 hour
[2] = TTPC 3.125 ppm active, contact time 4 hours
[3] = TTPC 3.125 ppm active, contact time 24 hours
[4] = TTPC 6.25 ppm active, contact time 1 hour
[5] = TTPC 6.25 ppm active, contact time 4 hours
[6] = TTPC 6.25 ppm active, contact time 24 hours
[7] = DMO 40 ppm active, contact time 1 hour
[8] = DMO 40 ppm active, contact time 4 hours
[9] = DMO 40 ppm active, contact time 24 hours
[10] = DMO 80 ppm active, contact time 1 hour
[11] = DMO 80 ppm active, contact time 4 hours
[12] = DMO 80 ppm active, contact time 24 hours

**Q.** What does the source list for `CCCCCCCCCCCCCC[P+](CCCC)(CCCC)CCCC.[Cl-]` [TTPC, tri n-butyl n-tetradecyl phosphonium chloride]?
**A.** Log10 Reduction Anaerobes (Desulfovibrio vulgaris; [1]): 1; Log10 Reduction Anaerobes (Desulfovibrio vulgaris; [2]): 5; Log10 Reduction Anaerobes (Desulfovibrio vulgaris; [3]): 5; Log10 Reduction Anaerobes (Desulfovibrio vulgaris; [4]): 2; Log10 Reduction Anaerobes (Desulfovibrio vulgaris; [5]): 5; Log10 Reduction Anaerobes (Desulfovibrio vulgaris; [6]): 5; Log10 Reduction Facultative Anaerobes (Enterobacter aerogenes; [1]): 1; Log10 Reduction Facultative Anaerobes (Enterobacter aerogenes; [2]): 2; Log10 Reduction Facultative Anaerobes (Enterobacter aerogenes; [3]): 4; Log10 Reduction Facultative Anaerobes (Enterobacter aerogenes; [4]): 3; Log10 Reduction Facultative Anaerobes (Enterobacter aerogenes; [5]): 4; Log10 Reduction Facultative Anaerobes (Enterobacter aerogenes; [6]): 5

**Q.** `CC1(C)COCN1` [DMO, 4,4-dimethyloxazolidine] was tested. Which “Log10 Reduction Anaerobes” value (Desulfovibrio vulgaris; [7]) did it give?
**A.** 1

**Q.** And the “Log10 Reduction Anaerobes” value (Desulfovibrio vulgaris; [8])?
**A.** 1

**Q.** What about the “Log10 Reduction Anaerobes” value (Desulfovibrio vulgaris; [9]) of the same compound?
**A.** 1

**Q.** What about the “Log10 Reduction Anaerobes” value (Desulfovibrio vulgaris; [10]) of the same compound?
**A.** 1

**Q.** What about the “Log10 Reduction Anaerobes” value (Desulfovibrio vulgaris; [11]) of the same compound?
**A.** 2

**Q.** And the “Log10 Reduction Anaerobes” value (Desulfovibrio vulgaris; [12])?
**A.** 2

**Q.** What about the “Log10 Reduction Facultative Anaerobes” value (Enterobacter aerogenes; [7]) of the same compound?
**A.** 0

**Q.** What about the “Log10 Reduction Facultative Anaerobes” value (Enterobacter aerogenes; [8]) of the same compound?
**A.** 0

**Q.** What about the “Log10 Reduction Facultative Anaerobes” value (Enterobacter aerogenes; [9]) of the same compound?
**A.** 0

**Q.** And the “Log10 Reduction Facultative Anaerobes” value (Enterobacter aerogenes; [10])?
**A.** 0

**Q.** What about the “Log10 Reduction Facultative Anaerobes” value (Enterobacter aerogenes; [11]) of the same compound?
**A.** 0

**Q.** What about the “Log10 Reduction Facultative Anaerobes” value (Enterobacter aerogenes; [12]) of the same compound?
**A.** 0
